Laboratory results: publication PMC8151276, “An Integrated Approach toward NanoBRET Tracers for Analysis of GPCR Ligand Engagement” (Molecules, 2021)

How the values were obtained:
Type in all cases: binding
FZD7 = target: T1, FZD7 (Homo sapiens, UniProt O75084); test: NanoBRET screen HiBiT-FZD7 in HEK293; details: FZD7
T1 construct: purchased Promega (in-house HiBiT-GPCR construct library, NanoBRET)
Experimental: (§1) Each tracer candidate was screened across the entire library of HiBiT-GPCR constructs using NanoBRET as the detection modality. As depicted in Figure 4A, the specificity of interactions was evaluated through decrease in BRET due to competitive displacement of a bound tracer by excess parental compound. Each tracer was analyzed for binding to each HiBiT-GPCR fusion in the absence and in the presence of competing parental compound. Briefly, HEK293 cells were transfected with HiBiT-GPCR constructs diluted into promoterless DNA to reduce expression and maximize translocation to the cell surface. Each tracer candidate was then screened at concentrations of 1 μM and 0.1 μM across cells expressing these fusions. Cells were treated for 1.5 h with tracer either alone or in the presence of 20 μM competing parental compound (i.e., control). BRET was measured upon addition of purified LgBiT and subsequent complementation with HiBiT genetically fused to a GPCR. The specificity of interactions was assessed through a decrease in BRET signal due to competitive displacement of the bound tracer. To further gauge the robustness of these interactions, the fold response over the control (i.e., BRETtracer/BRETcontrol) was calculated. We chose a 1.5-fold response, which translates to ≥7-fold signal over noise as the minimal threshold required to score an interaction as positive. […]. Below we highlight the screening results obtained for our exemplary fluorescent tracers based on Clozapine, Amitriptyline and AZD1283.
(§2) HiBiT-GPCR DNA constructs were diluted in 10 mM Tris pH 8 to a final concentration of 0.01 μg/μL, arrayed in 96-well plates and stored at −20 °C. For transfection, HEK293 cells were suspended in Opti-MEM (without phenol red) supplemented with 2% fetal bovine serum (Seradigm) and 100 units/mL penicillin–streptomycin (Gibco) at a final concentration of 220,000 cells/mL and dispensed into white 96-well plates at 90 μL/well. Subsequent transfections and screens were carried using an Agilent Bravo Automated Liquid Handling Platform. First, the 96-well HiBiT DNA arrays were diluted 25-fold in Opti-MEM (without serum or phenol red) to a final concentration of 0.0004 μg/μL and 20 μL of the diluted DNAs were transferred into new 96-well plates. Next, promoterless carrier DNA (1 μg/μL) was diluted 25-fold (0.04 μg/μL) and then dispensed into the diluted arrays at 20 μL/well. Following brief mixing, Viafect transfection reagent (Promega) diluted 16-fold into Opti-MEM was dispensed into the plates at 40 μL/well. After mixing by pipetting, plates were incubated for 10 min on the pipetting station deck. The DNA-transfection reagent complexes were then added to plates containing cells. To facilitate the screen, 10 μL of DNA-transfection reagent complexes were added in duplicates to the top 4 and bottom 4 rows, resulting in two identical 48-well arrays per plate. Plates with transfected cells were incubated for 18–20 h at 37 °C/5% CO2. A screen of each tracer across the entire library using two different concentrations requires duplicate plates of transfected cells. Depending on the number of tracers being screened, transfections can be scaled up using the same ratios. The next day, for each tracer, four 20× screening solutions in tracer dilution buffer (Promega) were prepared: two duplicates at final concentration of 20 μM and two duplicates at a final concentration of 2 μM. A competing unmodified compound was added to one of each duplicate at a final concentration of 400 μM. The four resulting solutions were diluted 4-fold in Opti-MEM without serum or phenol red to generate 5× solutions (5 µM and 0.5 µM tracer +/− 100 μM competing compound). To screen the library, a BioTek MultiFlo FX liquid dispenser was used to dispense 22.5 µL of tracer solution to the top 4 rows and 22.5 µL tracer + competing compound solution to the 4 bottom rows. Plates were briefly mixed on an orbital shaker and incubated for 1.5 h at room temperature. […]

LTB4R = target: T2, LTB4R (Homo sapiens, UniProt Q15722); test: NanoBRET screen HiBiT-LTB4R in HEK293; details: LTB4R
T2 construct: purchased Promega (in-house HiBiT-GPCR construct library, NanoBRET)
T2 sequence (Q15722 whole entry): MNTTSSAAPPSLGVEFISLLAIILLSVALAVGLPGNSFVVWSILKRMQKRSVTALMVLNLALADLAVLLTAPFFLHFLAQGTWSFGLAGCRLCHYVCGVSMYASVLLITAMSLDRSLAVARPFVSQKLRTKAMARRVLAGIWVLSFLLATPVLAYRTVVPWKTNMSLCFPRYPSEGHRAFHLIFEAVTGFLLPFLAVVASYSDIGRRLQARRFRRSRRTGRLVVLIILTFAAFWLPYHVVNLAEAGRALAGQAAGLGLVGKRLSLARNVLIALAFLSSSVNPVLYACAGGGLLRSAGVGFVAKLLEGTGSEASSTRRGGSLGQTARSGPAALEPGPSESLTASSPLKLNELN
Experimental: as §1, §2

HTR1E = target: T3, HTR1E (Homo sapiens, UniProt P28566); test: NanoBRET screen HiBiT-HTR1E in HEK293; details: HTR1E
T3 construct: purchased Promega (in-house HiBiT-GPCR construct library, NanoBRET)
T3 sequence (P28566 whole entry): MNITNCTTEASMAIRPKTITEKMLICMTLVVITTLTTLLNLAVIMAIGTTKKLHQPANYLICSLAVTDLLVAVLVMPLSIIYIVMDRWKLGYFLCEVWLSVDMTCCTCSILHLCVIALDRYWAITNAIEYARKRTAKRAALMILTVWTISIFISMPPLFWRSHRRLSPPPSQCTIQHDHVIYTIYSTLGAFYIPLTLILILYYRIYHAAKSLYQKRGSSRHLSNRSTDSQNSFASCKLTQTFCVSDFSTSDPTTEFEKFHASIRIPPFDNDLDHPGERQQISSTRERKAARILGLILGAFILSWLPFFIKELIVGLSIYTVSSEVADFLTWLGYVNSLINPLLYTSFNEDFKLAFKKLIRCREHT
Experimental: as §1, §2

CCR8 = target: T4, CCR8 (Homo sapiens, UniProt P51685); test: NanoBRET screen HiBiT-CCR8 in HEK293; details: CCR8
T4 construct: purchased Promega (in-house HiBiT-GPCR construct library, NanoBRET)
T4 sequence (P51685 whole entry): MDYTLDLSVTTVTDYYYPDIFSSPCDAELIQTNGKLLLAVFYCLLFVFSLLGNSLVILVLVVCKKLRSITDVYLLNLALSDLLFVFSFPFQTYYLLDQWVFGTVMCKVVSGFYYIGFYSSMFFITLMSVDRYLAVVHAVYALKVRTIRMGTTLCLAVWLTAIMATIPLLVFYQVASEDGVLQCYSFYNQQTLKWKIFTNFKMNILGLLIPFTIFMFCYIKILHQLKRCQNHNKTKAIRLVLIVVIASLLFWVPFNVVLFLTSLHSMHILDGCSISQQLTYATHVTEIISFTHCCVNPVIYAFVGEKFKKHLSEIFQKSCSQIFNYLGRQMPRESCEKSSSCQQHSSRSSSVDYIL
Experimental: as §1, §2

LGR4 = target: T5, LGR4 (Homo sapiens, UniProt Q9BXB1); test: NanoBRET screen HiBiT-LGR4 in HEK293; details: LGR4
T5 construct: purchased Promega (in-house HiBiT-GPCR construct library, NanoBRET)
T5 sequence (Q9BXB1 25-951): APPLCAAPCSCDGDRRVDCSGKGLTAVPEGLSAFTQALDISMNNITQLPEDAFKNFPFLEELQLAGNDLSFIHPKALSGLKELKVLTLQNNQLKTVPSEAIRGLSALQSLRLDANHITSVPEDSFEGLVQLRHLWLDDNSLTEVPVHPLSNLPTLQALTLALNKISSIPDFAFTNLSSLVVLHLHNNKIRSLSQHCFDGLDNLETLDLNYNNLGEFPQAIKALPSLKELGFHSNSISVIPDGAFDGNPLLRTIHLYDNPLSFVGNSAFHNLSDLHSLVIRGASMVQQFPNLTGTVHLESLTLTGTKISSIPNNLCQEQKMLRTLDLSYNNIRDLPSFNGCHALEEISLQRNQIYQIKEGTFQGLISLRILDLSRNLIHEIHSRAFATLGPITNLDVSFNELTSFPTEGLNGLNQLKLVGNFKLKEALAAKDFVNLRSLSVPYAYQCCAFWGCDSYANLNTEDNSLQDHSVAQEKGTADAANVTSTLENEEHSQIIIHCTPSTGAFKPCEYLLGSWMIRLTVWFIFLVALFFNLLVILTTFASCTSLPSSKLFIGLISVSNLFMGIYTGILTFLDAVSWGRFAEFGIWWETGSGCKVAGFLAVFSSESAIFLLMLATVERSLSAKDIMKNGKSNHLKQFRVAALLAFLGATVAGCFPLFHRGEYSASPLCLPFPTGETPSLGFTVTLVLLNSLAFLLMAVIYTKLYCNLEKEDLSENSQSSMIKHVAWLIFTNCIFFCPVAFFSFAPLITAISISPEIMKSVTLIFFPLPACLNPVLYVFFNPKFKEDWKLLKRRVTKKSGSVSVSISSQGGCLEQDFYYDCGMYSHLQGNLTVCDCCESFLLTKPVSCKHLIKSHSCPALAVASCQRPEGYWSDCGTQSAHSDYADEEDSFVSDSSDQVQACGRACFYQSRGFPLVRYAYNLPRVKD
Experimental: as §1, §2

| Structure (SMILES) | NanoBRET Fold Response (FZD7; tracer 0.1μM) | NanoBRET Fold Response (FZD7; tracer 1μM) | NanoBRET Fold Response (LTB4R; tracer 1μM) | NanoBRET Fold Response (HTR1E; tracer 0.1μM) | NanoBRET Fold Response (CCR8; tracer 0.1μM) | NanoBRET Fold Response (CCR8; tracer 1μM) | NanoBRET Fold Response (LGR4; tracer 0.1μM) | NanoBRET Fold Response (LGR4; tracer 1μM) | NanoBRET Fold Response (LTB4R; tracer 0.1μM) | NanoBRET Fold Response (HTR1E; tracer 1μM) | NanoBRET Fold Response (FZD7; 0.1μM) | NanoBRET Fold Response (FZD7; 1μM) | NanoBRET Fold Response (LTB4R; 0.1μM) | NanoBRET Fold Response (LTB4R; 1μM) | NanoBRET Fold Response (HTR1E; 0.1μM) | NanoBRET Fold Response (HTR1E; 1μM) | NanoBRET Fold Response (CCR8; 0.1μM) | NanoBRET Fold Response (CCR8; 1μM) | NanoBRET Fold Response (LGR4; 0.1μM) | NanoBRET Fold Response (LGR4; 1μM) |
| --- | --- | --- | --- | --- | --- | --- | --- | --- | --- | --- | --- | --- | --- | --- | --- | --- | --- | --- | --- | --- |
| COc1ccccc1N1CCN(CCCCN2C(=O)c3ccc(CNC(=O)CCOCCOCCOCCOCCNC(=O)CCc4ccc5n4[B-](F)(F)[N+]4=C(c6ccc[nH]6)C=CC4=C5)cc3C2=O)CC1 [NAN-190-2-NB590] | 1.00 | 1.03 | 0.96 | 0.97 | 0.92 | 0.92 | 1.09 | 0.99 | – | – | – | – | – | – | – | – | – | – | – | – |
| COc1ccccc1N1CCN(CCCCN2C(=O)c3ccc(CNC(=O)CCOCCNC(=O)c4ccc(CNC(=O)CCc5ccc6n5[B-](F)(F)[N+]5=C(c7ccc[nH]7)C=CC5=C6)cc4)cc3C2=O)CC1 [NAN-190-3-NB590] | 0.94 | 1.27 | 1.09 | 0.84 | 0.67 | 1.01 | 0.88 | 0.95 | 1.02 | 0.91 | – | – | – | – | – | – | – | – | – | – |
| O=C(CCc1ccc2n1[B-](F)(F)[N+]1=C(c3ccc[nH]3)C=CC1=C2)NCc1ccc(C(=O)NCCOCCC(=O)N[C@@H]2CC[C@@]3(O)[C@H]4Cc5ccc(O)c6c5[C@@]3(CCN4CC3CC3)[C@H]2O6)cc1 [Naltrexone-3-NB590] | 1.32 | 1.27 | 1.06 | 0.72 | 1.14 | 1.02 | 0.94 | 0.87 | 0.68 | 0.90 | – | – | – | – | – | – | – | – | – | – |
| Cc1cc2c(s1)Nc1ccccc1N=C2N1CCN(CCCNC(=O)CCOCCOCCOCCOCCNC(=O)CCc2ccc3n2[B-](F)(F)[N+]2=C(c4ccc[nH]4)C=CC2=C3)CC1 [Olanzapine-a-2-NB590] | 1.03 | 0.95 | 1.03 | 0.99 | 0.96 | 0.95 | 0.98 | 1.30 | 1.02 | 1.09 | – | – | – | – | – | – | – | – | – | – |
| O=C(CCc1ccc2n1[B-](F)(F)[N+]1=C(c3ccc[nH]3)C=CC1=C2)NCc1ccc(C(=O)NCCOCCOCCNCC(O)COc2cccc3ccccc23)cc1 (stereo not drawn) [Propranolol-3-NB590] | – | – | – | – | – | – | – | – | – | – | 1.01 | 1.04 | 0.97 | 1.02 | 1.00 | 0.98 | 1.00 | 0.93 | 0.97 | 1.02 |
